The values below come from patent US11028077B2, “Crystalline pharmaceutical and methods of preparation and use thereof” (NOVARTIS PHARMACEUTICALS CORPORATION, priority 2008, dated 2021).

This data set relates to tester strains. The data set can be described thus: In vitro Ames bacterial reverse mutation assay. Conditions: presence or absence of microsomal (S9) enzymes. The format is cell-based. From the text: Therefore, the compound of Formula I was judged to be not mutagenic.

Molecules are shown by their SMILES.

Turning to `CS(=O)(=O)c1cccc(C[C@H](NC(=O)c2c(Cl)cc3c(c2Cl)CCN(C(=O)c2ccc4ccoc4c2)C3)C(=O)O)c1` [compound of Formula I], the “mutagenicity (revertants per plate)” value is “not mutagenic”.
